Laboratory results published in PubChem BioAssay (NCI).
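1) Cells in 96-well plates. 2) Compound, 48 h, 5 concentrations. 3) Linear interpolation between surrounding doses. 4) Unreached endpoint = highest concentration. Here, GI50 denotes the concentration required for 50% inhibition of growth. The concentration for full growth arrest is given as TGI.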

How the values were obtained:
Experiment in all cases: growth of human tumour cells (NCI), 48 h
SK-MEL-5 melanoma = system: SK-MEL-5 melanoma
COLO 205 colon = system: COLO 205 colon
OVCAR-3 ovarian = system: OVCAR-3 ovarian
TK-10 renal = system: TK-10 renal
SR leukemia = system: SR leukemia
MDA-MB-231 breast = system: MDA-MB-231 breast
SF-539 CNS = system: SF-539 CNS
CCRF-CEM leukemia = system: CCRF-CEM leukemia
SF-268 CNS = system: SF-268 CNS
HCC-2998 colon = system: HCC-2998 colon
NCI/ADR-RES ovarian = system: NCI/ADR-RES ovarian
BT-549 breast = system: BT-549 breast
OVCAR-5 ovarian = system: OVCAR-5 ovarian
HCT-116 colon = system: HCT-116 colon
MDA-MB-435 = system: MDA-MB-435
K-562 leukemia = system: K-562 leukemia
786-0 renal = system: 786-0 renal
IGROV1 ovarian = system: IGROV1 ovarian
PC-3 prostate = system: PC-3 prostate
A498 renal = system: A498 renal
UO-31 renal = system: UO-31 renal
RPMI-8226 leukemia = system: RPMI-8226 leukemia
HT29 colon = system: HT29 colon
UACC-62 melanoma = system: UACC-62 melanoma
HL-60(TB) leukemia = system: HL-60(TB) leukemia
HS 578T breast = system: HS 578T breast
U251 CNS = system: U251 CNS
KM12 colon = system: KM12 colon
OVCAR-8 ovarian = system: OVCAR-8 ovarian
EKVX NSCLC = system: EKVX NSCLC
SK-MEL-28 melanoma = system: SK-MEL-28 melanoma
SNB-19 CNS = system: SNB-19 CNS
SK-MEL-2 melanoma = system: SK-MEL-2 melanoma
MCF7 breast = system: MCF7 breast
MALME-3M melanoma = system: MALME-3M melanoma
SK-OV-3 ovarian = system: SK-OV-3 ovarian
SNB-75 CNS = system: SNB-75 CNS
ACHN renal = system: ACHN renal
SN12C renal = system: SN12C renal
NCI-H226 lung = system: NCI-H226 lung
DU-145 prostate = system: DU-145 prostate
NCI-H522 lung = system: NCI-H522 lung
CAKI-1 renal = system: CAKI-1 renal
OVCAR-4 ovarian = system: OVCAR-4 ovarian
NCI-H23 lung = system: NCI-H23 lung
A549 NSCLC = system: A549 NSCLC
M14 melanoma = system: M14 melanoma
T-47D breast = system: T-47D breast
HOP-62 NSCLC = system: HOP-62 NSCLC
UACC-257 melanoma = system: UACC-257 melanoma
NCI-H460 lung = system: NCI-H460 lung
MOLT-4 leukemia = system: MOLT-4 leukemia
HOP-92 NSCLC = system: HOP-92 NSCLC

C#C[C@]1(O)CC[C@H]2[C@@H]3CC=C4c5sc(Nc6cc(OC)ccc6OC)nc5CC[C@]4(C)[C@H]3CC[C@@]21C
GI50 (SK-MEL-5 melanoma): 2.3 µM
TGI (SK-MEL-5 melanoma): 5.58 µM
GI50 (COLO 205 colon): 2.43 µM
TGI (COLO 205 colon): 7.83 µM
GI50 (OVCAR-3 ovarian): 2.39 µM
TGI (OVCAR-3 ovarian): 9.14 µM
GI50 (TK-10 renal): 4.15 µM
TGI (TK-10 renal): 27.5 µM
GI50 (SR leukemia): 0.306 µM
TGI (SR leukemia): 24.8 µM
GI50 (MDA-MB-231 breast): 2.36 µM
TGI (MDA-MB-231 breast): > 100 µM
GI50 (SF-539 CNS): 0.449 µM
TGI (SF-539 CNS): 1.68 µM
GI50 (CCRF-CEM leukemia): 0.619 µM
TGI (CCRF-CEM leukemia): > 100 µM
GI50 (SF-268 CNS): 3.55 µM
TGI (SF-268 CNS): 33 µM
GI50 (HCC-2998 colon): 4.11 µM
TGI (HCC-2998 colon): 23.2 µM
GI50 (NCI/ADR-RES ovarian): 3.11 µM
TGI (NCI/ADR-RES ovarian): > 100 µM
GI50 (BT-549 breast): 0.61 µM
TGI (BT-549 breast): 7.03 µM
GI50 (OVCAR-5 ovarian): 4.14 µM
TGI (OVCAR-5 ovarian): 25.7 µM
GI50 (HCT-116 colon): 1.12 µM
TGI (HCT-116 colon): 2.77 µM
GI50 (MDA-MB-435): 2.79 µM
TGI (MDA-MB-435): 19.2 µM
GI50 (K-562 leukemia): 0.553 µM
TGI (K-562 leukemia): > 100 µM
GI50 (786-0 renal): 0.392 µM
TGI (786-0 renal): 5.08 µM
GI50 (IGROV1 ovarian): 2.93 µM
TGI (IGROV1 ovarian): 25 µM
GI50 (PC-3 prostate): 0.627 µM
TGI (PC-3 prostate): 30 µM
GI50 (A498 renal): 0.429 µM
TGI (A498 renal): 4.62 µM
GI50 (UO-31 renal): 1.41 µM
TGI (UO-31 renal): 12.9 µM
GI50 (RPMI-8226 leukemia): 0.193 µM
TGI (RPMI-8226 leukemia): 0.694 µM
GI50 (HT29 colon): 1.8 µM
TGI (HT29 colon): > 100 µM
GI50 (UACC-62 melanoma): 1.56 µM
TGI (UACC-62 melanoma): 9.02 µM
GI50 (HL-60(TB) leukemia): 0.646 µM
TGI (HL-60(TB) leukemia): 4.07 µM
GI50 (HS 578T breast): 0.202 µM
TGI (HS 578T breast): 0.597 µM
GI50 (U251 CNS): 0.643 µM
TGI (U251 CNS): 13.3 µM
GI50 (KM12 colon): 2.33 µM
TGI (KM12 colon): 11 µM
GI50 (OVCAR-8 ovarian): 2.94 µM
TGI (OVCAR-8 ovarian): > 100 µM
GI50 (EKVX NSCLC): 2.86 µM
TGI (EKVX NSCLC): 42.5 µM
GI50 (SK-MEL-28 melanoma): 0.406 µM
TGI (SK-MEL-28 melanoma): 5.32 µM
GI50 (SNB-19 CNS): 3.63 µM
TGI (SNB-19 CNS): 24.3 µM
GI50 (SK-MEL-2 melanoma): 2.28 µM
TGI (SK-MEL-2 melanoma): 42.1 µM
GI50 (MCF7 breast): 0.454 µM
TGI (MCF7 breast): 1.74 µM
GI50 (MALME-3M melanoma): 1.69 µM
TGI (MALME-3M melanoma): 8.76 µM
GI50 (SK-OV-3 ovarian): 1.08 µM
TGI (SK-OV-3 ovarian): 4.37 µM
GI50 (SNB-75 CNS): 0.386 µM
TGI (SNB-75 CNS): 13.7 µM
GI50 (ACHN renal): 1.9 µM
TGI (ACHN renal): 16.5 µM
GI50 (SN12C renal): 3.9 µM
TGI (SN12C renal): 32.7 µM
GI50 (NCI-H226 lung): 3.04 µM
TGI (NCI-H226 lung): 20.9 µM
GI50 (DU-145 prostate): 1.91 µM
TGI (DU-145 prostate): 7.47 µM
GI50 (NCI-H522 lung): 3.9 µM
TGI (NCI-H522 lung): 29.8 µM
GI50 (CAKI-1 renal): 1.11 µM
TGI (CAKI-1 renal): 4.68 µM
GI50 (OVCAR-4 ovarian): 4.46 µM
TGI (OVCAR-4 ovarian): > 100 µM
GI50 (NCI-H23 lung): 2.49 µM
TGI (NCI-H23 lung): 28.3 µM
GI50 (A549 NSCLC): 3.1 µM
TGI (A549 NSCLC): 95.7 µM
GI50 (M14 melanoma): 1.04 µM
TGI (M14 melanoma): 4.08 µM
GI50 (T-47D breast): 3.04 µM
TGI (T-47D breast): > 100 µM
GI50 (HOP-62 NSCLC): 1.96 µM
TGI (HOP-62 NSCLC): 47.9 µM
GI50 (UACC-257 melanoma): 1.95 µM
TGI (UACC-257 melanoma): 9.18 µM
GI50 (NCI-H460 lung): 2.16 µM
TGI (NCI-H460 lung): 15.1 µM
GI50 (MOLT-4 leukemia): 0.367 µM
TGI (MOLT-4 leukemia): 16.2 µM
GI50 (HOP-92 NSCLC): 4.66 µM
TGI (HOP-92 NSCLC): 74.7 µM
